In patent US20090099150A1, “Methotrexate Combinations For Treating Inflammatory Diseases” (priority 2005, published 2009):

Key:
[1] = system: collagen-induced arthritis; assay: Clinical assessment of collagen-induced arthritis (percent arthritic rats, arthritis index); type: in vivo, Lewis rats; conditions: CIA rats
[2] = system: collagen-induced arthritis; assay: Hind paw volume by plethysmometry in collagen-induced arthritis; type: in vivo, Lewis rats; conditions: CIA rats, alone
[3] = system: collagen-induced arthritis; assay: Radiography of hind paws at day 35; type: in vivo, Lewis rats; conditions: CIA rats; for protection from bone resorption / joint pathology (FIG. 4: histological damage score and radiograph score): alone; for radiographic bone resorption / joint pathology of hind paws: methotrexate 0.15 mg/kg orally
TNF-α = assay: Plasma TNF-α level (ELISA) at 35 days in collagen-induced arthritis; type: in vivo, Lewis rats; conditions: CIA rats, day 35
Method: (§1) Animals were randomly divided into sixth groups (n=10 for each group); (1) Sham group receiving intraperitoneally 26 mM sodium bicarbonate buffer at pH 8.1-8.3 which constituted the vehicle for M40403; (2) CIA group which constituted rats subjected to collagen induced arthritis as described below; (3) CIA+M40403 (2 mg/kg) group in which rats subjected to collagen-induced arthritis received M40403 at 2 mg/kg i.p. every 24 h, starting from day 25; (4) CIA+MET (0.015 mg/kg) group in which rats subjected to collagen-induced arthritis received orally, methotrexate at 0.015 mg/kg starting from day 25; (5) CIA+MET (0.15 mg/kg) group in which rats subjected to collagen-induced arthritis received orally, methotrexate at 0.15 mg/kg starting from day 25; (6)
(§2) CIA+MET+M40403 group in which rats subjected to collagen-induced arthritis received methotrexate (0.015 mg/kg; orally) and with M4043 (2 mg/kg, i.p.) starting from day 25.
(§3) Collagen-induced arthritis was produced as follows. Bovine type II collagen was dissolved in 0.01 M acetic acid at a concentration of 2 mg/ml by stirring overnight at 4° C. Dissolved collagen was frozen at −70° C. until use. Complete Freund's adjuvant was prepared by the addition of Mycobacterium tuberculosis H37Ra at a concentration of 2 mg/ml. Before injection, the collagen was emulsified with an equal volume of complete Freund's adjuvant. Collagen-induced arthritis was elicited as previously described (Salvemini et al Arthritis & rheumatism 44:2909-2921, 2001). On day 1, Lewis rats were injected intradermally at the base of the tail with 100 μl of the emulsion (containing 100 μg of bovine type II collagen). On day 21, a second injection of type II collagen in complete Freund's adjuvant was administered.
(§4) TNF-α and IL-1β levels were evaluated in plasma at 35 days after the induction of arthritis. The assay was carried out by using a calorimetric, commercial kit (Calbaiochem-Novabiochem Corporation, USA). The ELISA has a lower detection limit of 5 pg/ml.

IL-1β = assay: Plasma IL-1β level (ELISA) at 35 days in collagen-induced arthritis; type: in vivo, Lewis rats; conditions: CIA rats, day 35
Method: as §1, §2, §3, §4

[4] = Body weight gain in collagen-induced arthritis; type: in vivo, Lewis rats; conditions: CIA rats
Method: as §1, §2, §3

[5] = system: type II collagen induced arthritis; conditions: Salvemini et al., Arthritis & Rheumatism 44:2909-2921, 2001; cited from earlier work
inflammation = conditions: Salvemini et al., Science 286:304-306, 1999; cited from earlier work
[6] = system: collagen-induced arthritis; assay: Histological assessment of joint injury at day 35; type: in vivo, Lewis rats; conditions: CIA rats, methotrexate 0.15 mg/kg orally
[7] = methotrexate 0.015 mg/kg orally, alone
[8] = methotrexate 0.015 mg/kg orally

[Cl-].[Cl-].[Mn+2].c1cc2nc(c1)CN[C@@H]1CCCC[C@H]1NCCN[C@@H]1CCCC[C@H]1NC2 [M40403]
development of collagen-induced arthritis (percent of arthritic rats) ([1]; M40403 2 mg/kg i.p. every 24 h from day 25, alone): did not significantly altered the development of collagen-induced arthritis
arthritis index ([1]; M40403 2 mg/kg i.p., alone): Neither M40403 (2 mg/kg) nor methotrexate. (0.015 mg/kg) treatment alone attenuated the arthritis index
hind paw volume (paw edema) ([2]; M40403 2 mg/kg i.p.): attenuated the paw edema from day 30 to 35
protection from bone resorption / joint pathology (FIG. 4: histological damage score and radiograph score) ([3]; M40403 2 mg/kg i.p.): No significant protection
plasma level of TNF-α (TNF-α; M40403 2 mg/kg i.p., alone): No significant effect
plasma level of IL-1β (IL-1β; M40403 2 mg/kg i.p., alone): No significant effect
body weight gain ([4]; M40403 2 mg/kg i.p., alone): significantly attenuated the loss in body weight
efficacy in an animal model of rheumatoid arthritis [5]: effective
efficacy in animal models of inflammation (inflammation): effective

CN(Cc1cnc2nc(N)nc(N)c2n1)c1ccc(C(=O)N[C@@H](CCC(=O)O)C(=O)O)cc1 [methotrexate, N-[4-[[(2,4-Diamino-6-pteridinyl)methyl]methylamino]benzoyl]-L-glutamic acid]
development of collagen-induced arthritis (percent of arthritic rats) ([1]; methotrexate 0.015 mg/kg orally from day 25, alone): did not significantly altered the development of collagen-induced arthritis
arthritis index [1, 7]: Neither M40403 (2 mg/kg) nor methotrexate. (0.015 mg/kg) treatment alone attenuated the arthritis index
development of collagen-induced arthritis (percent of arthritic rats) ([1]; methotrexate 0.15 mg/kg orally from day 25, alone): significant reduction in the percent of arthritic rats
arthritis index ([1]; methotrexate 0.15 mg/kg orally, between days 26 and 35 after immunization): significant suppression (P<0.01)
hind paw volume (paw edema) [2, 8]: attenuated the paw edema from day 30 to 35
hind paw volume (hind paw swelling) ([2]; methotrexate 0.15 mg/kg orally): continuously significant (P<0.001) suppression of hind paw swelling from day 26 to 35
Emax at 0.15 mg/kg ([2]; Rattus norvegicus, po, 672 h, methotrexate 0.15 mg/kg orally, from day 28 to 35, read-out: maximal response, suppression of hind paw swelling): 70%
histology of the paw: bone erosion and degree of arthritis (damage score) [6]: the bone erosion as well as the degree of arthritis were significantly reduced
protection from bone resorption / joint pathology (FIG. 4: histological damage score and radiograph score) [3, 8]: No significant protection
radiographic bone resorption / joint pathology of hind paws [3]: suppression of joint pathology
radiographic bone resorption / joint pathology of hind paws ([3]; listed as Methogtrexate): markedly protect from bone resorption
plasma level of TNF-α (TNF-α; [7]): No significant effect
plasma level of TNF-α (TNF-α; methotrexate 0.15 mg/kg orally): significantly lower
plasma level of IL-1β (IL-1β; [7]): No significant effect
plasma level of IL-1β (IL-1β; methotrexate 0.15 mg/kg orally): significantly lower
body weight gain [4, 7]: significantly attenuated the loss in body weight
body weight gain ([4]; methotrexate 0.15 mg/kg orally): positively affected the weight gain
